In ChEMBL document CHEMBL5046238, “Synthesis, biological evaluation, and in silico studies of potential activators of apoptosis and carbonic anhydrase inhibitors on isatin-5-sulfonamide scaffold” (Eur J Med Chem, 2022) one finds IC50 and Ki data, which are given here for 21 molecules.

A value given as a limit tells only on which side of the number the result lay.

Series [1] concerns K562. Kind of series: Antiproliferative activity against human K562 cells assessed as growth inhibition measured after 72 hrs by MTT assay. The conditions noted are these: K562, 72 h. On the technique in general: Formazan colour is commonly taken as a measure of viable cells.
In series [2] the target is Carbonic anhydrase 9 (Homo sapiens, UniProt Q16790). Kind of series: Inhibition of human CA9 preincubated for 15 mins by phenol red dye based stopped flow CO2 hydration assay.
Series [3] has as its system MCF7. Kind of series: Antiproliferative activity against human MCF7 cells assessed as growth inhibition measured after 72 hrs by MTT assay. The conditions noted are these: MCF7, 72 h.
Series [4] can be described thus: Antiproliferative activity against human K562/4 cells assessed as growth inhibition measured after 72 hrs by MTT assay. The conditions noted are these: K562/4, 72 h.
In series [5] the test system is MDA-MB-231. The series is described as follows: Antiproliferative activity against human MDA-MB-231 cells assessed as growth inhibition under hypoxia conditions measured after 72 hrs by MTT assay. The conditions noted are these: MDA-MB-231, 72 h.
The subject of series [6] is T47D. The series is described as follows: Antiproliferative activity against human T47D cells assessed as growth inhibition under normoxia conditions measured after 72 hrs by MTT assay.
In series [7] the test system is HCT-116. The series is described as follows: cells. The conditions noted are these: Homo sapiens, HCT-116, 72 h.
Description: Antiproliferative activity against human HCT-116 assessed as growth inhibition measured after 72 hrs by MTT assay
Series [8] relates to T47D. Kind of series: Antiproliferative activity against human T47D cells assessed as growth inhibition under hypoxia conditions measured after 72 hrs by MTT assay.
Series [9] concerns MCF7. The series is described as follows: Antiproliferative activity against human MCF7 cells assessed as growth inhibition under hypoxia conditions measured after 72 hrs by MTT assay. The conditions noted are these: MCF7, 72 h.
Series [10] in a line: Cytotoxicity against human MCF-10A assessed as cell viability under hypoxia conditions measured after 72 hrs by MTT assay. The conditions noted are these: MCF-10A cells. The format is toxicity, cell-based.
A short description of series [11]: Cytotoxicity against human MCF-10A assessed as cell viability under normoxia conditions measured after 72 hrs by MTT assay. The series is classed as toxicity, cell-based. The conditions noted are these: MCF-10A cells.
Series [12] has as its system HCT-116. Kind of series: Antiproliferative activity against human HCT-116p53KO subline assessed as growth inhibition measured after 72 hrs by MTT assay. The conditions noted are these: HCT-116, 72 h.
Series [13] concerns MDA-MB-231. Kind of series: Antiproliferative activity against human MDA-MB-231 cells assessed as growth inhibition under normoxia conditions measured after 72 hrs by MTT assay. The conditions noted are these: MDA-MB-231, 72 h.
The target in series [14] is Carbonic anhydrase 12 (Homo sapiens, UniProt O43570). Kind of series: Inhibition of human CA12 preincubated for 15 mins by phenol red based stopped flow CO2 hydration assay.
Carbonic anhydrase 12, sequence (O43570 whole entry): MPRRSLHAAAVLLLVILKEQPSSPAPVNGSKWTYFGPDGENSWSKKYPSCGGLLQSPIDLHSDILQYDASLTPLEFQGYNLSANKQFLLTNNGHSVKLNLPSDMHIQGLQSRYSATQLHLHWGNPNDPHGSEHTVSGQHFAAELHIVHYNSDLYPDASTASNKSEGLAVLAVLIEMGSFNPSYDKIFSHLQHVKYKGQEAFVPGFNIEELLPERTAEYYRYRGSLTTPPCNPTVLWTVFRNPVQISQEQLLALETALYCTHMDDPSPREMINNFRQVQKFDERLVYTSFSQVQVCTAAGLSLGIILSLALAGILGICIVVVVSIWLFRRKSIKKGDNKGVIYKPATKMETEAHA

With `NS(=O)(=O)c1ccc2c(c1)C(=O)C(=O)N2Cc1ccccc1`, the IC50 was 18 µM in [1], 20.1 µM in series [3] and over 50 µM in series [4]. Moreover, the affinity in series [2] corresponds to a Ki of 1.53 µM.

Consider `NS(=O)(=O)c1ccc2c(c1)C(=O)C(=O)N2Cc1ccc([N+](=O)[O-])cc1`, for which the half-maximal inhibitory concentration (IC50) in series [1], in [3] and in series [4] was over 50 µM in each case. For the same molecule, in [2], the affinity, expressed as Ki, was 2.04 µM.

Regarding `COc1ccc(CN2C(=O)C(=O)c3cc(S(N)(=O)=O)ccc32)cc1`, the IC50 in series [5] is 40.8 µM; in [6], 20.7 µM; in series [7], 27 µM; in series [1], 9 µM; in series [8] it was over 50 µM; in [9] it was 4.6 µM. Also, the IC50 in series [3] turned out to be 5.1 µM; in [4], 43 µM; in [12], 30 µM; in series [13], 28.4 µM. The same molecule registered a Ki in series [2] of 1.03 µM. For the same molecule, the IC50 at 72 h in series [10] is 3.2 µM; in [11], 4 µM.

On to `NS(=O)(=O)c1ccc2c(c1)C(=O)C(=O)N2Cc1ccc(F)cc1`, for which the IC50 is 36 µM in [1], 17.3 µM in [3] and over 50 µM in [4]. In [2], this molecule returned a Ki of 0.24 µM.

On to `NS(=O)(=O)c1ccc2c(c1)C(=O)C(=O)N2Cc1cc(C(F)(F)F)ccc1F`, for which the Ki is over 10 µM in series [14] and 0.211 µM in series [2]. Also, the results for the IC50 in series [1], in series [3] and in series [4] were 9 µM, 12 µM and 19.8 µM, respectively.

With `NS(=O)(=O)c1ccc2c(c1)C(=O)C(=O)N2Cc1ccc(Cl)c(Cl)c1`, the IC50 is 18.5 µM in series [5]; 17.1 µM in [6]; 32 µM in series [7]; 17 µM in series [1]; over 50 µM in series [8]; 5.9 µM in [9]. For the same molecule, the IC50 was 6.1 µM in [3], over 50 µM in series [4], 31 µM in series [12] and 21.8 µM in series [13]. For the same molecule, the Ki in [2] is 1.46 µM. In addition, the IC50 at 72 h is 7.3 µM in series [10] and 6.6 µM in series [11].

As to `NS(=O)(=O)c1ccc2c(c1)C(=O)C(=O)N2Cc1ccc(F)cc1Cl`, the IC50 amounted to 11 µM in [1], 13.3 µM in [3] and 32 µM in series [4]. In series [2], the Ki was determined as 0.292 µM.

As for `NS(=O)(=O)c1ccc2c(c1)C(=O)C(=O)N2Cc1c(F)cccc1F`, the IC50 in series [1] is 17 µM; in [3] it was 22.7 µM; in series [4], 40 µM. Besides, the Ki in [2] turned out to be 1.03 µM.

In the case of `Cc1ccc(CN2C(=O)C(=O)c3cc(S(N)(=O)=O)ccc32)cc1C`, the IC50 in series [5] was 9.4 µM; in series [6], 9.4 µM; in [7] it was 17 µM; in series [1], 8 µM; in series [8], 11.1 µM; in series [9] it was 3.9 µM. For the same molecule, the IC50 in series [3] came out at 4.4 µM; in series [4] it was 17 µM; in series [12], 15 µM; in series [13], 7.4 µM. Moreover, the affinity in series [2], expressed as Ki, was 0.276 µM. Further, the IC50 at 72 h was determined as 6 µM in [10] and 6.2 µM in series [11].

In the case of `NS(=O)(=O)c1ccc2c(c1)C(=O)C(=O)N2Cc1ccccc1F`, the concentration for half-maximal inhibition (IC50) is 18 µM in series [1], 8.7 µM in series [3] and 20 µM in series [4]. In series [2], this molecule yielded a Ki of 1.11 µM.

Regarding `NS(=O)(=O)c1ccc2c(c1)C(=O)C(=O)N2CCc1ccccc1`, the half-maximal inhibitory concentration (IC50) in series [1] is 17.2 µM; in [3] it was 31.8 µM; in series [4], 36 µM. Also, the Ki in series [2] came out at 1.81 µM.

Take `NS(=O)(=O)c1ccc2c(c1)C(=O)C(=O)N2`: the IC50 in [1], in series [3] and in [4] was over 50 µM throughout. The molecule further returned a Ki in series [2] of 1.46 µM.

For the molecule `NS(=O)(=O)c1ccc2c(c1)C(=O)C(=O)N2Cc1ccc(Cl)cc1`, the IC50 in [5] worked out at 19.1 µM; in [6], 18.4 µM; in series [7], 23 µM; in series [1] it was 14 µM; in [8], 42.5 µM; in series [9], 4.9 µM. The IC50 in series [3] came out at 6 µM; in [4] it was 50 µM; in series [12], 30 µM; in series [13], 22 µM. In series [2], this molecule showed a Ki of 0.26 µM. The 50% inhibitory concentration (IC50) at 72 h came to 6.2 µM in [10] and 6.9 µM in [11].

As to `NS(=O)(=O)c1ccc2c(c1)C(=O)C(=O)N2Cc1c(F)cccc1Cl`, the IC50 was found to be 14.5 µM in [1], 12.8 µM in series [3] and 18 µM in series [4]. This molecule returned a Ki in series [2] of 0.204 µM.

For the molecule `NS(=O)(=O)c1ccc2c(c1)C(=O)C(=O)N2Cc1ccc(C(F)(F)F)cc1`, the IC50 in series [5] is 16.3 µM; in [6], 22.6 µM; in series [7], 30 µM; in series [1], 16 µM; in [8] it was 32.6 µM; in series [9] it was 5.5 µM. Moreover, the IC50 in series [3] worked out at 8.2 µM; in series [4], 50 µM; in series [12], 34 µM; in [13], 27.1 µM. Besides, in series [2], the Ki amounted to 0.811 µM.

On to `NS(=O)(=O)c1ccc2c(c1)CCC2NC(=O)c1c(F)c(F)c(F)c(F)c1F` (centres undefined), for which the IC50 in series [5] was 25.7 µM; in series [6], over 50 µM; in [7], 18 µM; in [1], 12.5 µM; in series [8], over 50 µM; in [9] it was 13.1 µM. The IC50 in series [3] stood at 9.2 µM; in series [4], 18 µM; in series [12], 45 µM; in series [13] it was 26.6 µM. Besides, the IC50 at 72 h in series [10] and in [11] was over 50 µM throughout.

In the case of `NS(=O)(=O)c1ccc2c(c1)C(=O)C(=O)N2Cc1ccc(Cl)cc1Cl`, the IC50 turned out to be 8.4 µM in series [5]; 12 µM in [6]; 17.5 µM in series [7]; 8.8 µM in series [1]; 21.8 µM in [8]; 5.6 µM in series [9]. Moreover, the IC50 in [3] amounted to 7.8 µM; in series [4], 18 µM; in [12], 20 µM; in [13], 7 µM. Further, in series [2], the Ki was determined as 0.163 µM.

On to `NS(=O)(=O)c1ccc2c(c1)C(=O)C(=O)N2Cc1cc(F)cc(F)c1`, for which the IC50 in [1] was 35 µM; in series [3], 26.5 µM; in series [4], 37 µM. This molecule had a Ki in series [2] of 1.32 µM.

Turning to `COc1cccc2c1C(=O)c1c(O)c3c(c(O)c1C2=O)C[C@@](O)(C(=O)CO)C[C@@H]3O[C@H]1C[C@H](N)[C@H](O)[C@H](C)O1` [DOXORUBICIN], the concentration for half-maximal inhibition (IC50) in [5] turned out to be 0.25 µM; in series [6] it was 0.16 µM; in series [7] it was 0.3 µM; in [8], 0.18 µM; in series [9], 0.37 µM; in series [3], 0.31 µM. Besides, the IC50 turned out to be 0.8 µM in [12] and 0.33 µM in series [13]. For the same molecule, the values for the IC50 at 72 h in [10] and in series [11] were 0.051 µM and 0.047 µM, respectively.

Consider `NS(=O)(=O)c1ccc2c(c1)C(=O)C(=O)N2Cc1c(F)c(F)c(F)c(F)c1F`, for which the IC50 in [1] is 8 µM; in [3], 10.2 µM; in series [4], over 50 µM. The molecule also showed a Ki in series [2] of 0.195 µM.

With `NS(=O)(=O)c1ccc2c(c1)C(=O)C(=O)N2Cc1ccncc1`, the IC50 in series [1], in [3] and in series [4] was over 50 µM throughout. The molecule also showed a Ki in [2] of 1.68 µM.

Broadly, the IC50 is the concentration that gives 50% inhibition. What is called Ki is the dissociation constant of the complex between target and ligand, obtained from inhibition or displacement. Low readings indicate higher affinity, high ones lower affinity.
